Target: p38 MAP-kinase (Homo sapiens, UniProt Q16539)
Test: Enzymatic assay: inhibition of p38 MAP-kinase (phosphorylation of GST-tagged ATF2, chemoluminescence bead readout)
Format: biochemical
Conditions: inhibitor 1 μM; activated p38 MAP-kinase 1 nM; 4 h preincubation; ATP 100 μM; ATF2 10 nM
Protocol: In this, the amount of a substrate phosphorylated by the kinase is quantified. The test is carried out as follows:
The kinase reaction is carried out in the presence of HEPES (20 mM, pH 7), MgCl2 (10 mM), DTT (1 mM) and TWEEN20 (0.01%). First, dimethylsulphoxide or inhibitor (final concentration: 1 μM) dissolved in dimethylsulphoxide are placed in a reaction vessel. Then the activated p38 MAP-kinase (final concentration 1 nM) is added and the mixture is incubated for 4 h at ambient temperature. Then a mixture of substrate (GST-tagged ATF2) and ATP is added and everything is incubated together for a further hour (final concentration ATP: 100 μM; final concentration ATF2: 10 nM).
The concentration of phosphorylated ATF2 is quantified by chemoluminescence-induced light emission. For this, a glutathione donor bead (final concentration: 5 μg/ml) which binds to the gluthathione on the ATF2 and phospho-ATF2 antibodies are added to the reaction mixture (final concentration: 3 nM; this binds the phosphate group added by the kinase reaction) to which a Protein A Acceptor Bead (final concentration: 5 μg/ml) binds. These components are dissolved in a buffer which contains 20 mM HEPES pH 7.0, 200 mM NaCL, 80 mM EDTA as well as 0.3% BSA. This reaction mixture is incubated in the dark for 1 hour at ambient temperature. When these beads come physically close, visible light is emitted which is measured in a photometer at 520-620 nm.
To determine the inhibitory activity of the compounds according to the invention a calculation is made to determine the percentage by which the kinase activity is inhibited at a fixed inhibitor concentration of 1 μM. The maximum activity is determined by non-inhibited kinase. The minimum activity or nonspecific background activity is determined using a reaction mixture without kinase. […] Table 2 summarises the degree of inhibition of the enzyme p38 MAP-kinase—as described hereinbefore—of the compounds according to the invention detailed in the section “Preparation of the final compounds”.

Sequence of p38 MAP-kinase (Q16539 whole entry): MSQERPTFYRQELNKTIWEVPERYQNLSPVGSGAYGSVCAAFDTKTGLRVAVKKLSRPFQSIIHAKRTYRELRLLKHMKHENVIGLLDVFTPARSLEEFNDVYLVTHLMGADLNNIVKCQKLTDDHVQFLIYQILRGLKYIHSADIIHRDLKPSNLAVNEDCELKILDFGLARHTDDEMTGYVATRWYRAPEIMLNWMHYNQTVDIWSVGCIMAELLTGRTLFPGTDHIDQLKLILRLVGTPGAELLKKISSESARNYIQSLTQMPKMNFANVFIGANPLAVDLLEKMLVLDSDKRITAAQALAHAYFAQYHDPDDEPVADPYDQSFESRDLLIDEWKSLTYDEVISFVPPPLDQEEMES

% inhibitory effect at 1 μM [%]	SMILES
97.6	COc1c(NC(=O)c2ccc(C)c(Oc3ccnc(N(C)C4CCNCC4)n3)c2)cc(C(C)(C)C)cc1NS(C)(=O)=O [5(25), N-(5-tert-butyl-3-methanesulphonylamino-2-methoxy-phenyl)-4-methyl-3-[2-(methyl-piperidin-4-yl-amino)-pyrimidin-4-yloxy]-benzamide]

Same assay, conditions: inhibitor 1 μM; activated p38 MAP-kinase 1 nM; 4 h preincubation; ATP 100 μM; ATF2 10 nM; read-out: % inhibitory effect at 1 μM

SMILES	inhibition at 1 µM [%]
COc1c(NC(=O)c2ccc(C)c(Oc3cc(NC4CCNC4)ncn3)c2)cc(C(C)(C)C)cc1NS(C)(=O)=O (centres unmarked) [5(26), N-(5-tert-butyl-3-methanesulphonylamino-2-methoxy-phenyl)-4-methyl-3-[6-(pyrrolidin-3-ylamino)-pyrimidin-4-yloxy]-benzamide]	97.6
COc1c(NC(=O)c2ccc(C)c(Oc3ccnc(CC4CCNCC4)n3)c2)cc(C(C)(C)C)cc1S(C)(=O)=O [5(38), N-(5-tert-butyl-3-methanesulphonyl-2-methoxy-phenyl)-4-methyl-3-(2-piperidin-4-ylmethyl-pyrimidin-4-yloxy)-benzamide]	98.8
COc1c(CSC)cc(C(C)(C)C)cc1NC(=O)c1ccc(C)c(Oc2ccnc(CC3CCNCC3)c2)c1 [5(40), N-(5-tert-butyl-2-methoxy-3-methylsulphanylmethyl-phenyl)-4-methyl-3-(2-piperidin-4-ylmethyl-pyridin-4-yloxy)-benzamide]	99.5
COc1c(CS(C)(=O)=O)cc(C(C)(C)C)cc1NC(=O)c1ccc(C)c(Oc2ccnc(CC3CCNCC3)c2)c1 [5(41), N-(5-tert-butyl-3-methanesulphonylmethyl-2-methoxy-phenyl)-4-methyl-3-(2-piperidin-4-ylmethyl-pyridin-4-yloxy)-benzamide]	99.6
COc1c(C[S+](C)[O-])cc(C(C)(C)C)cc1NC(=O)c1ccc(C)c(Oc2ccnc(CC3CCNCC3)c2)c1 (centres unmarked) [5(42), N-(5-tert-butyl-2-methoxy-3-methylsulphinylmethyl-phenyl)-4-methyl-3-(2-piperidin-4-ylmethyl-pyridin-4-yloxy)-benzamide]	99.5
COc1c(NC(=O)c2ccc(C)c(Oc3ccnc(CC4CCNCC4)c3)c2)cc(C(C)(C)C)cc1NC(=O)C1CC1 [5(43), N-[5-tert-butyl-3-(cyclopropanecarbonyl-amino)-2-methoxy-phenyl]-4-methyl-3-(2-piperidin-4-ylmethyl-pyridin-4-yloxy)-benzamide]	98.6
Cc1ccc(C(=O)Nc2cc(C(C)(C)C)cc(NS(C)(=O)=O)c2OC(C)C)cc1Oc1ccnc(CC2CCNCC2)c1 [5(44), N-(5-tert-butyl-2-isopropoxy-3-methanesulphonylamino-phenyl)-4-methyl-3-(2-piperidin-4-ylmethyl-pyridin-4-yloxy)-benzamide]	93.2
CCOc1c(NC(=O)c2ccc(C)c(Oc3ccnc(CC4CCNCC4)c3)c2)cc(C(C)(C)C)cc1NS(C)(=O)=O [5(45), N-(5-tert-butyl-2-ethoxy-3-methanesulphonylamino-phenyl)-4-methyl-3-(2-piperidin-4-ylmethyl-pyridin-4-yloxy)-benzamide]	99.6
COc1c(NC(=O)c2ccc(C)c(Oc3ccnc(CC4CCNCC4)c3)c2)cc(C(C)(C)C)cc1NS(=O)(=O)CC(C)C [5(46), N-[5-tert-butyl-2-methoxy-3-(2-methyl-propane-1-sulphonylamino)-phenyl]-4-methyl-3-(2-piperidin-4-ylmethyl-pyridin-4-yloxy)-benzamide]	99.6
COc1c(NC(=O)c2ccc(C)c(Oc3ccnc(CC4CCNCC4)c3)c2)cc(C(C)(C)C)cc1NC(=O)C(C)C [5(47), N-(5-tert-butyl-3-isobutyrylamino-2-methoxy-phenyl)-4-methyl-3-(2-piperidin-4-ylmethyl-pyridin-4-yloxy)-benzamide]	97.3
COc1c(NC(=O)c2ccc(C)c(Oc3ccnc(CC4CCNCC4)c3)c2)cc(C(C)(C)C)cc1[S+](C)[O-] (centres unmarked) [5(48), N-(5-tert-butyl-3-methanesulphinyl-2-methoxy-phenyl)-4-methyl-3-(2-piperidin-4-ylmethyl-pyridin-4-yloxy)-benzamide]	99.4
COc1c(NC(=O)c2ccc(C)c(Oc3ccnc(CC4CCNCC4)c3)c2)cc(C(F)(F)F)cc1NS(C)(=O)=O [5(49), N-(3-methanesulphonylamino-2-methoxy-5-trifluoromethyl-phenyl)-4-methyl-3-(2-piperidin-4-ylmethyl-pyridin-4-yloxy)-benzamide]	99.2

Second part, the compound after the results:

inhibition at 1 µM [%]	SMILES
99	COc1c(NC(=O)c2ccc(Cl)c(Oc3ccnc(NC4CCNCC4)n3)c2)cc(C(C)(C)C)cc1NS(C)(=O)=O [5(28), N-(5-tert-butyl-3-methanesulphonylamino-2-methoxy-phenyl)-4-chloro-3-[2-(piperidin-4-ylamino)-pyrimidin-4-yloxy]-benzamide]
99	COc1c(NC(=O)c2ccc(Cl)c(Oc3ccnc(CC4CCNCC4)c3)c2)cc(C(C)(C)C)cc1NS(C)(=O)=O [5(29), N-(5-tert-butyl-3-methanesulphonylamino-2-methoxy-phenyl)-4-chloro-3-(2-piperidin-4-ylmethyl-pyridin-4-yloxy)-benzamide]
99	COc1c(NC(=O)c2ccc(Cl)c(Oc3ccnc(CC4CCNCC4)n3)c2)cc(C(C)(C)C)cc1NS(C)(=O)=O [5(30), N-(5-tert-butyl-3-methanesulphonylamino-2-methoxy-phenyl)-4-chloro-3-(2-piperidin-4-ylmethyl-pyrimidin-4-yloxy)-benzamide]
99.4	COc1c(NC(=O)c2ccc(Cl)c(Oc3ccnc(NC4CCNCC4)c3)c2)cc(C(C)(C)C)cc1NS(C)(=O)=O [5(31), N-(5-tert-butyl-3-methanesulphonylamino-2-methoxy-phenyl)-4-chloro-3-[2-(piperidin-4-ylamino)-pyridin-4-yloxy]-benzamide]
97.9	COc1c(NC(=O)c2ccc(Cl)c(Oc3cc(CN4CCNCC4)ncn3)c2)cc(C(C)(C)C)cc1NS(C)(=O)=O [5(32), N-(5-tert-butyl-3-methanesulphonylamino-2-methoxy-phenyl)-4-chloro-3-(6-piperazin-1-ylmethyl-pyrimidin-4-yloxy)-benzamide]
99.2	COc1c(NC(=O)c2ccc(Cl)c(Oc3cc(CC4CCNCC4)ncn3)c2)cc(C(C)(C)C)cc1NS(C)(=O)=O [5(33), N-(5-tert-butyl-3-methanesulphonylamino-2-methoxy-phenyl)-4-chloro-3-(6-piperidin-4-ylmethyl-pyrimidin-4-yloxy)-benzamide]
99.1	COc1c(NC(=O)c2ccc(Cl)c(Oc3ccnc(CN4CCNCC4)c3)c2)cc(C(C)(C)C)cc1NS(C)(=O)=O [5(34), N-(5-tert-butyl-3-methanesulphonylamino-2-methoxy-phenyl)-4-chloro-3-(2-piperazin-1-ylmethyl-pyridin-4-yloxy)-benzamide]
98.3	COc1c(NC(=O)c2ccc(Cl)c(Oc3ccnc(CN4CCNCC4)n3)c2)cc(C(C)(C)C)cc1NS(C)(=O)=O [5(35), N-(5-tert-butyl-3-methanesulphonylamino-2-methoxy-phenyl)-4-chloro-3-(2-piperazin-1-ylmethyl-pyrimidin-4-yloxy)-benzamide]
99.3	COc1c(NC(=O)c2ccc(Cl)c(Oc3cc(CN4CCCNCC4)ncn3)c2)cc(C(C)(C)C)cc1NS(C)(=O)=O [5(36), N-(5-tert-butyl-3-methanesulphonylamino-2-methoxy-phenyl)-4-chloro-3-(6-[1,4]diazepan-1-ylmethyl-pyrimidin-4-yloxy)-benzamide]
99.3	COc1c(NC(=O)c2ccc(Cl)c(Oc3ccnc(CN4CCCNCC4)c3)c2)cc(C(C)(C)C)cc1NS(C)(=O)=O [5(37), N-(5-tert-butyl-3-methanesulphonylamino-2-methoxy-phenyl)-4-chloro-3-(2-[1,4]diazepan-1-ylmethyl-pyridin-4-yloxy)-benzamide]
99.4	COc1c(NC(=O)c2ccc(C)c(Oc3ccnc(CN4CCCNCC4)c3)c2)cc(C(C)(C)C)cc1S(C)(=O)=O [5(39), N-(5-tert-butyl-3-methanesulphonyl-2-methoxy-phenyl)-3-(2-[1,4]diazepan-1-ylmethyl-pyridin-4-yloxy)-4-methyl-benzamide]
99.6	COc1c(NC(=O)c2ccc(C)c(Oc3ccnc(CC4CCNCC4)c3)c2)cc(C(C)(C)C)cc1NS(=O)(=O)C(C)C [5(50), N-[5-tert-butyl-2-methoxy-3-(propane-2-sulphonylamino)-phenyl]-4-methyl-3-(2-piperidin-4-ylmethyl-pyridin-4-yloxy)-benzamide]
99.5	COc1c(NC(=O)c2ccc(C)c(Oc3ccnc(CC4CCCNCC4)c3)c2)cc(C(C)(C)C)cc1NS(C)(=O)=O (centres unmarked) [5(52), 3-(2-azepan-4-ylmethyl-pyridin-4-yloxy)-N-(5-tert-butyl-3-methanesulphonylamino-2-methoxy-phenyl)-4-methyl-benzamide]
